Reference: patent US20190185865A1, “USE OF PROKARYOTIC TRANSCRIPTIONAL ACTIVATORS AS METABOLITE BIOSENSORS IN EUKARYOTIC CELLS” (Danmarks Tekniske Universitet, priority 2016, published 2019)

Molecular target: T1, BenM (Acinetobacter baylyi, UniProt O68014)
T1 construct: expressed in transfected cells; host or cells: Saccharomyces cerevisiae CEN.PK113-5A, chromosomal integration; promoters TDH3p, TEF1p, RNR2p or REV1p
Assay: CCM-induced GFP expression in yeast strains combining BenM expression cassettes and CYC1p reporter promoter variants (flow cytometry)
Type: cell-based, Saccharomyces cerevisiae
Conditions: for FC (+/−CCM): 1.4 mM CCM
Text: Strains, chemicals and media. Saccharomyces cerevisiae CEN.PK102-5B (MATa ura3-52 his3Δ1 leu2-3/112 MAL2-8^c SUC2), CEN.PK113-5A (MATa, trp1 his3Δ1 leu2-3/112 MAL2-8^c SUC2) and CEN.PK113-7D (wild type, MATa MAL2-8^c SUC2) strains were obtained from Peter Kotter (Johann Wolfgang Goethe-University Frankfurt, Germany). In principal any other yeast strains may be used, such as one obtained from public repository EuroScarf. EasyClone plasmids used in this work are described in Jensen, N. B. et al. EasyClone: method for iterative chromosomal integration of multiple genes in Saccharomyces cerevisiae. FEMS Yeast Res. 14, 238-48 (2014). Escherichia coli strain DH5a was used as a host for cloning and plasmid propagation. The chemicals and Pfu TURBO DNA polymerase were commercially obtained (Sigma-Aldrich and Agilent Technologies Inc., respectively). All acids used were >97% in purity. S. cerevisiae cells were grown at 30° C. in synthetic complete medium as well as drop-out media and agar plates were prepared using pre-mixed drop-out powders (Sigma-Aldrich). Mineral medium was freshly prepared as described previously. For all media containing diacids, 1.4 mM of the individual diacids were dissolved in mineral medium and pH adjusted to 4.5 before sterile filtration. For CCM several dilutions were made to examine the performance of the CCM biosensor. For naringenin, mineral medium was supplemented with 0, 0.05, 0.10 or 0.20 mM naringenin, dissolved in ethanol, the final ethanol concentration for each medium was 2% (v/v), and the final pH of the medium was adjusted to 6.0. E. coli cells were grown at 37° C. in Luria-Bertani (LB) medium supplemented with 100 μg/mL ampicillin.
Events were analyzed using FlowJo software (TreeStar Inc.).

T1 sequence (O68014 whole entry): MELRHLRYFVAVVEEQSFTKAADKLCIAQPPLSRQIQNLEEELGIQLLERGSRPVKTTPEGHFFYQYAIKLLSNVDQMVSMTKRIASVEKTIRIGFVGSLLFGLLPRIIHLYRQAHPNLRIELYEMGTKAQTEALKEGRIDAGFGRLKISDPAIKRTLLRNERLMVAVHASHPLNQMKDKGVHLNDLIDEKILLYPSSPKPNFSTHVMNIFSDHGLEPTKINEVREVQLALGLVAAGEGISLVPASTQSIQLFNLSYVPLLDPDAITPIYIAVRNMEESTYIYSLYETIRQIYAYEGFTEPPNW

## O=C(O)/C=C\C=C/C(=O)O [CCM, cis, cis-muconic acid]
Chromosomally integrated BenM, 1.4 mM (200 mg/L) CCM, 24 h
  maximum induction of GFP output: 3.5 fold
full-length CYC1p with BenO (T1, T2, T1/T2), BenM from TEF1p, 200 mg/L CCM, pH 4.5, 24 h
  increase in reporter output from all CYC1 promoters that harbored BenO: 1.3-2.2 fold
Minimal promoters 249 bp_CYC1p_BenO_T1 and 209 bp_CYC1p_BenO_T1
  highest dynamic range (CCM-inducibility): 3.2-4.7 fold
Native CYC1p, 200 mg/L CCM, pH 4.5, 24 h
  change in reporter output from native CYC1p: no change
Strain MeLS0020, TEF1p-BenM + 491bp_CYC1p_BenO_T2:GFP
  Mean fluorescense intensities of GFP (24 h), CCM (1.4 mM): 813
Strain MeLS0020, TEF1p-BenM + 491bp_CYC1p_BenO_T2:GFP, 24 h
  FC (+/−CCM): 2.224
Strain MeLS0021, TEF1p-BenM + 491bp_CYC1p_BenO_T1/T2:GFP
  Mean fluorescense intensities of GFP (24 h), CCM (1.4 mM): 2967
Strain MeLS0021, TEF1p-BenM + 491bp_CYC1p_BenO_T1/T2:GFP, 24 h
  FC (+/−CCM): 2.184
Strain MeLS0025, TEF1p-BenM + 209bp_CYC1p_BenO_T1:GFP
  Mean fluorescense intensities of GFP (24 h), CCM (1.4 mM): 4139
Strain MeLS0025, TEF1p-BenM + 209bp_CYC1p_BenO_T1:GFP, 24 h
  FC (+/−CCM): 3.494
Strain MeLS0026, TEF1p-BenM + 209bp_CYC1p_BenO_T2:GFP
  Mean fluorescense intensities of GFP (24 h), CCM (1.4 mM): 406
Strain MeLS0026, TEF1p-BenM + 209bp_CYC1p_BenO_T2:GFP, 24 h
  FC (+/−CCM): 1.068
Strain MeLS0027, TEF1p-BenM + 209bp_CYC1p_BenO_T1/T2:GFP
  Mean fluorescense intensities of GFP (24 h), CCM (1.4 mM): 1879
Strain MeLS0027, TEF1p-BenM + 209bp_CYC1p_BenO_T1/T2:GFP, 24 h
  FC (+/−CCM): 3.394
Strain MeLS0044, REV1p-BenM + 491bp_CYC1p_BenO_T2:GFP
  Mean fluorescense intensities of GFP (24 h), CCM (1.4 mM): 667
Strain MeLS0044, REV1p-BenM + 491bp_CYC1p_BenO_T2:GFP, 24 h
  FC (+/−CCM): 1.524
Strain MeLS0045, REV1p-BenM + 491bp_CYC1p_BenO_T1/T2:GFP
  Mean fluorescense intensities of GFP (24 h), CCM (1.4 mM): 1698
Strain MeLS0045, REV1p-BenM + 491bp_CYC1p_BenO_T1/T2:GFP, 24 h
  FC (+/−CCM): 1.418
Strain MeLS0049, 209 bp_CYC1p_BenO_T1, BenM from REV1p
  CCM-inducibility: 3.8 fold
Strain MeLS0049, REV1p-BenM + 209bp_CYC1p_BenO_T1:GFP
  Mean fluorescense intensities of GFP (24 h), CCM (1.4 mM): 880
Strain MeLS0049, REV1p-BenM + 209bp_CYC1p_BenO_T1:GFP, 24 h
  FC (+/−CCM): 3.81
Strain MeLS0050, REV1p-BenM + 209bp_CYC1p_BenO_T2:GFP
  Mean fluorescense intensities of GFP (24 h), CCM (1.4 mM): 182
Strain MeLS0050, REV1p-BenM + 209bp_CYC1p_BenO_T2:GFP, 24 h
  FC (+/−CCM): 1.166
Strain MeLS0051, REV1p-BenM + 209bp_CYC1p_BenO_T1/T2:GFP
  Mean fluorescense intensities of GFP (24 h), CCM (1.4 mM): 307
Strain MeLS0051, REV1p-BenM + 209bp_CYC1p_BenO_T1/T2:GFP, 24 h
  FC (+/−CCM): 1.569
Strain MeLS0070, RNR2p-BenM + 209bp_CYC1p_BenO_T1/T2:GFP
  Mean fluorescense intensities of GFP (24 h), CCM (1.4 mM): 356
Strain MeLS0070, RNR2p-BenM + 209bp_CYC1p_BenO_T1/T2:GFP, 24 h
  FC (+/−CCM): 1.775
Strain MeLS0079, TEF1p-BenM
  Mean fluorescense intensities of GFP (24 h), CCM (1.4 mM): 185
Strain MeLS0079, TEF1p-BenM, 24 h
  FC (+/−CCM): 1.071
Strain MeLS0081, REV1p-BenM
  Mean fluorescense intensities of GFP (24 h), CCM (1.4 mM): 175
Strain MeLS0081, REV1p-BenM, 24 h
  FC (+/−CCM): 1.105
Strain MeLS0139, REV1p-BenM + 491bp_CYC1p:GFP
  Mean fluorescense intensities of GFP (24 h), CCM (1.4 mM): 2231
Strain MeLS0139, REV1p-BenM + 491bp_CYC1p:GFP, 24 h
  FC (+/−CCM): 0.9828
Strain MeLS0140, REV1p-BenM + 272bp_CYC1p:GFP
  Mean fluorescense intensities of GFP (24 h), CCM (1.4 mM): 183
Strain MeLS0140, REV1p-BenM + 272bp_CYC1p:GFP, 24 h
  FC (+/−CCM): 1.105
Strain MeLS0141, REV1p-BenM + 249bp_CYC1p:GFP
  Mean fluorescense intensities of GFP (24 h), CCM (1.4 mM): 176
Strain MeLS0141, REV1p-BenM + 249bp_CYC1p:GFP, 24 h
  FC (+/−CCM): 1.056
Strain MeLS0142, REV1p-BenM + 209bp_CYC1p:GFP
  Mean fluorescense intensities of GFP (24 h), CCM (1.4 mM): 174
Strain MeLS0142, REV1p-BenM + 209bp_CYC1p:GFP, 24 h
  FC (+/−CCM): 1.09
Strain MeLS0143, REV1p-BenM + 491bp_CYC1p_BenO_T1:GFP
  Mean fluorescense intensities of GFP (24 h), CCM (1.4 mM): 5789
Strain MeLS0143, REV1p-BenM + 491bp_CYC1p_BenO_T1:GFP, 24 h
  FC (+/−CCM): 1.088
Strain MeLS0144, REV1p-BenM + 272bp_CYC1p_BenO_T1:GFP
  Mean fluorescense intensities of GFP (24 h), CCM (1.4 mM): 804
Strain MeLS0144, REV1p-BenM + 272bp_CYC1p_BenO_T1:GFP, 24 h
  FC (+/−CCM): 2.381
Strain MeLS0145, REV1p-BenM + 249bp_CYC1p_BenO_T1:GFP
  Mean fluorescense intensities of GFP (24 h), CCM (1.4 mM): 405
Strain MeLS0145, REV1p-BenM + 249bp_CYC1p_BenO_T1:GFP, 24 h
  FC (+/−CCM): 1.953
Strain MeLS0147, TDH3p-BenM + 272bp_CYC1p_BenO_T1:GFP
  Mean fluorescense intensities of GFP (24 h), CCM (1.4 mM): 4984
Strain MeLS0147, TDH3p-BenM + 272bp_CYC1p_BenO_T1:GFP, 24 h
  FC (+/−CCM): 3.738
Strain MeLS0148, TEF1p-BenM + 272bp_CYC1p_BenO_T1:GFP
  Mean fluorescense intensities of GFP (24 h), CCM (1.4 mM): 4032
Strain MeLS0148, TEF1p-BenM + 272bp_CYC1p_BenO_T1:GFP, 24 h
  FC (+/−CCM): 3.463
Strain MeLS0149, RNR2p-BenM + 272bp_CYC1p_BenO_T1:GFP
  Mean fluorescense intensities of GFP (24 h), CCM (1.4 mM): 854
Strain MeLS0149, RNR2p-BenM + 272bp_CYC1p_BenO_T1:GFP, 24 h
  FC (+/−CCM): 2.313
Strain MeLS0150, TDH3p-BenM + 209bp_CYC1p_BenO_T1:GFP
  Mean fluorescense intensities of GFP (24 h), CCM (1.4 mM): 4868
Strain MeLS0150, TDH3p-BenM + 209bp_CYC1p_BenO_T1:GFP, 24 h
  FC (+/−CCM): 4.082
Strain MeLS0151, RNR2p-BenM + 209bp_CYC1p_BenO_T1:GFP
  Mean fluorescense intensities of GFP (24 h), CCM (1.4 mM): 859
Strain MeLS0151, RNR2p-BenM + 209bp_CYC1p_BenO_T1:GFP, 24 h
  FC (+/−CCM): 3.735
Strain MeLS0152, TDH3p-BenM
  Mean fluorescense intensities of GFP (24 h), CCM (1.4 mM): 184
Strain MeLS0152, TDH3p-BenM, 24 h
  FC (+/−CCM): 1.08
Strain MeLS0153, RNR2p-BenM
  Mean fluorescense intensities of GFP (24 h), CCM (1.4 mM): 174
Strain MeLS0153, RNR2p-BenM, 24 h
  FC (+/−CCM): 1.13
Strain MeLS0156, TEF1p-BenM + 491bp_CYC1p:GFP
  Mean fluorescense intensities of GFP (24 h), CCM (1.4 mM): 3016
Strain MeLS0156, TEF1p-BenM + 491bp_CYC1p:GFP, 24 h
  FC (+/−CCM): 0.9902
Strain MeLS0157, TEF1p-BenM + 272bp_CYC1p:GFP
  Mean fluorescense intensities of GFP (24 h), CCM (1.4 mM): 198
Strain MeLS0157, TEF1p-BenM + 272bp_CYC1p:GFP, 24 h
  FC (+/−CCM): 1.13
Strain MeLS0158, TEF1p-BenM + 249bp_CYC1p:GFP
  Mean fluorescense intensities of GFP (24 h), CCM (1.4 mM): 175
Strain MeLS0158, TEF1p-BenM + 249bp_CYC1p:GFP, 24 h
  FC (+/−CCM): 1.117
Strain MeLS0159, TEF1p-BenM + 209bp_CYC1p:GFP
  Mean fluorescense intensities of GFP (24 h), CCM (1.4 mM): 177
Strain MeLS0159, TEF1p-BenM + 209bp_CYC1p:GFP, 24 h
  FC (+/−CCM): 1.132
Strain MeLS0160, RNR2p-BenM + 491bp_2YC1p:GFP
  Mean fluorescense intensities of GFP (24 h), CCM (1.4 mM): 2811
Strain MeLS0160, RNR2p-BenM + 491bp_2YC1p:GFP, 24 h
  FC (+/−CCM): 1.071
Strain MeLS0161, RNR2p-BenM + 272bp_CYC1p:GFP
  Mean fluorescense intensities of GFP (24 h), CCM (1.4 mM): 180
Strain MeLS0161, RNR2p-BenM + 272bp_CYC1p:GFP, 24 h
  FC (+/−CCM): 1.049
